Data taken from patent publication US7063946B2, “Methods, reagents, kits and apparatus for protein function analysis” (Meso Scale Technologies, LLC., priority 2001, dated 2006).

Tests used:
Assay type in all cases: biochemical
BTK = target: T1, BTK (Homo sapiens, UniProt Q06187); experiment: Kinase inhibitor profiling, pEY phosphorylation
T1 construct: specificity data for proteins generated from a library of eighteen full-length clones; host or cells: rabbit reticulocyte lysate, TnT coupled in vitro transcription/translation (cell-free)
T1 sequence (Q06187 whole entry): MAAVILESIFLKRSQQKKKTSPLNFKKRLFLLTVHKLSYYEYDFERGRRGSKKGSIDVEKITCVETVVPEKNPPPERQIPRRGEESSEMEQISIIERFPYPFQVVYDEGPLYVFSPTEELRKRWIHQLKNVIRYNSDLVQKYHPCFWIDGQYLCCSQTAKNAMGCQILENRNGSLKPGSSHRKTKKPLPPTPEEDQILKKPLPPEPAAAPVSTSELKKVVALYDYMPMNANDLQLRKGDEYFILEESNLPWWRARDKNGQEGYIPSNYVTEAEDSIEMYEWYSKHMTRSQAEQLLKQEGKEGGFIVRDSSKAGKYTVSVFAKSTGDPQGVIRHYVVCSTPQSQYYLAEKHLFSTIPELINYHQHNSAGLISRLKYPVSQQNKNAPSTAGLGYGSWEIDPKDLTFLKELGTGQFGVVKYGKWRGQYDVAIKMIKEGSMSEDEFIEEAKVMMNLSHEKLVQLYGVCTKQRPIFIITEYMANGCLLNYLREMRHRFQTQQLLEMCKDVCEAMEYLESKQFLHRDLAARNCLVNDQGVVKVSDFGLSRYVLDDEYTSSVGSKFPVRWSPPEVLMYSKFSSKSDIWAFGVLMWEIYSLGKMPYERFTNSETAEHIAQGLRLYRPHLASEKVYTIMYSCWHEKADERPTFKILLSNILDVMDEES
Description: (§1) Proteins were produced in an in vitro transcription and translation reaction. […] The unbound components of the reaction containing endogenous kinases were removed by three washes with TT-buffer (25 mM Tris-HCl buffer pH 7.4 and 0.004% Triton), two five minutes washings with high-salt wash buffer (25 mM Tris-HCl buffer pH 7.4, 0.004% Triton, 1M NaCl and 5 mM DTT) and 3 more washes with TT-buffer. To these immobilized and purified proteins a tyrosine kinase substrate, 5 nM pEY (poly Glu-Tyr, Sigma, MO), was added in a 50 μl reaction solution containing 5 mM MgCl2, 5 mM MnCl2, 100 μM ATP, 25 mM Tris-HCl buffer pH 7.4, 0.05 mM Na3VO4, 0.004% TritonX-100, 2 mM DTT and EDTA-free protease inhibitor (Roche Molecular Biochemicals). This mixture was incubated with shaking at room temperature overnight to allow phosphorylation of the pEY substrate by the immobilized kinases. Following this incubation, 45 μl of this mixture was transferred to a streptavidin or avidin-coated NPT IPR plate coated with biotinylated anti-phosphotyrosine antibody (PY20, Zymed labs, CA) followed by incubation for 30 minutes at room temperature to allow the binding of the phosphorylated pEY substrate to the PY20 coated NPT plate. Following this binding step, 50 ng Sulfo-TAG labeled anti-phosphotyrosine in buffer containing 25 mM Tris-HCl buffer pH 7.4, 5 mM MgCl2, 0.05 mM Na3VO4, 0.004% TritonX-100, 2 mM DTT and 0.05% IgG was added followed by incubation at room temperature for 30 mm. The unbound reagents were removed by one time washing with water, and the TAG label was detected in presence of 150 μl IPR assay buffer (0.4 mM Gly-Gly buffer, pH 7.8, 1 mM EDTA, 0.1 M TPA). The ECL signals were measured using an imaging plate reader.
(§2) The unbound components of the translation reaction (including any endogenous kinases) were removed by 3 washes with TT-buffer (25 mM Tris-HCl buffer pH 7.4 and 0.004% Triton), two five minutes washes with high-salt wash buffer (25 mM Tris-HCl buffer pH 7.4, 0.004% Triton, 1M NaCl and 5 mM DTT) and 3 washes with TT-buffer. […] The mixture was incubated at room temperature for 10 mm before starting the kinase reaction by adding 25 μl of 200 μM ATP in buffer A. This mixture was incubated with intermittent shaking at room temperature for 2 hours to overnight to allow (a) phosphorylation of the pEY substrate and (b) autophosphorylation of the immobilized kinases. Autophosphorylation and phosphorylation of the pEY was measured as described in Examples 7 and 8.
(§3) The ECL signal in control wells produced by tyrosine kinases was compared to the wells containing inhibitor compounds.

LCK [1] = target: T2, LCK (Homo sapiens, UniProt P06239); experiment: Kinase inhibitor profiling, autophosphorylation
T2 construct: specificity data for proteins generated from a library of eighteen full-length clones; host or cells: rabbit reticulocyte lysate, TnT coupled in vitro transcription/translation (cell-free)
T2 sequence (P06239 whole entry): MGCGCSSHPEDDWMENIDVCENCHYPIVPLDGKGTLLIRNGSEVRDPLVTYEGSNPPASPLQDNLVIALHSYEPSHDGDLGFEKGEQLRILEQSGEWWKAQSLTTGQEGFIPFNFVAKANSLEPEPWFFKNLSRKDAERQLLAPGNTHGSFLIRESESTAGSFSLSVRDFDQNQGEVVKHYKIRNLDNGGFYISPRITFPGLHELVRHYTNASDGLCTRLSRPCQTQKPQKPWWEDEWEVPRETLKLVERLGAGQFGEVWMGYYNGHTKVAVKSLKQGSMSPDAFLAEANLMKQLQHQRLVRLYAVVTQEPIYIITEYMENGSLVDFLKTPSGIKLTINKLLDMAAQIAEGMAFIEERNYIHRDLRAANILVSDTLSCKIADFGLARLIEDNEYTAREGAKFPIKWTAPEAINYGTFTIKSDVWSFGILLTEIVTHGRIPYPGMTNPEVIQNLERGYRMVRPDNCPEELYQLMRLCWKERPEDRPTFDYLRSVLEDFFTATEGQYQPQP
Description: To promote autophosphorylation in these immobilized and purified proteins, Mn++ ions were added in a 50 μl reaction containing 5 mM MgCl2, 5 mM MnCl2, 100 μM ATP, 25 mM Tris-HCl buffer pH 7.4, 0.05 mM Na3VO4, 0.004% TritonX-100, 2 mM DTT and EDTA-free protease inhibitor (Roche Molecular Biochemicals). This mixture was incubated with shaking at room temperature overnight to allow autophosphorylation. Following this incubation, wells were washed 2 times with TT-buffer and 2 times with water. Following this step, 50 ng Sulfo-TAG labeled anti-phosphotyrosine in buffer containing 25 mM Tris-HCl buffer pH 7.4, 5 mM MgCl2, 0.05 mM Na3VO4, 0.004% TritonX-100, 2 mM DTT and 0.05% IgG in a final volume of 50 μl was added followed by incubation at room temperature for 45 min. The unbound reagents were removed by one time washing with water, and the TAG label was detected in presence of 150 μl IPR assay buffer (0.4 mM Gly—Gly buffer, pH 7.8, 1 mM EDTA, 0.1 M TPA). The ECL signals were measured using an imaging plate reader.
as §2, with “kinases.” for “kinases. Autophosphorylation and phosphorylation of the pEY was measured as described in Examples 7 and 8.”
as §3

LCK [2] = target: T2, LCK; experiment: Kinase inhibitor profiling, pEY phosphorylation
Description: as §1, §2, §3

| Compound | Inhibition specificity towards pEY phosphorylation at 10X IC50, BTK (BTK) | Inhibition specificity towards Autophosphorylation at 10X IC50, LCK (LCK [1]) | Inhibition specificity towards pEY phosphorylation at 10X IC50, LCK (LCK [2]) |
| --- | --- | --- | --- |
| CC(C)(C)c1cc(C=C(C#N)C#N)cc(Br)c1O [AG-1024] | H (high inhibition (“H”=less than 25% of the activity remaining)) |  |  |
| Cc1cc2ncc(-c3ccc(O)c(O)c3)nc2cc1C [AG-1433] | H (high inhibition (“H”=less than 25% of the activity remaining)) | H (high inhibition (“H”=less than 25% of the activity remaining)) |  |
| COc1c(C=O)c(O)cc2c1C(=O)c1ccccc1C2=O [Damnacanthal] | H (high inhibition (“H”=less than 25% of the activity remaining)) |  |  |
| Cc1ccc(-c2nn(C(C)(C)C)c3ncnc(N)c23)cc1 [PP1] |  |  | M (medium inhibition (“M”=between 25 to 50% of the activity remaining)) |
| COc1cc2ncnc(Nc3ccc(Cl)cc3F)c2cc1OC [VEGFR inhibitor] | M (medium inhibition (“M”=between 25 to 50% of the activity remaining)) | L (low inhibition (“L”=between 50–75% of the activity remaining)) | H (high inhibition (“H”=less than 25% of the activity remaining)) |
| COc1cc2ncnc(Nc3ccc(O)cc3)c2cc1OC [WHI-P131] | M (medium inhibition (“M”=between 25 to 50% of the activity remaining)) | M (medium inhibition (“M”=between 25 to 50% of the activity remaining)) | H (high inhibition (“H”=less than 25% of the activity remaining)) |
| Erbstatin analog |  | L (low inhibition (“L”=between 50–75% of the activity remaining)) |  |
